Measured values reported in the supplement of paper PMC10307832.

Tests used:
Experiment in all cases: relative viability (nuclei count vs DMSO), 5 days (fraction); higher = more cells survive
Selisistat + Decitabine = compound: C1CC(C2=C(C1)C3=C(N2)C=CC(=C3)Cl)C(=O)N [Selisistat] + Nc1ncn([C@H]2C[C@H](O)[C@@H](CO)O2)c(=O)n1 [Decitabine] (partner 2 µM)
How it was run: (§1)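 Each reported value is a median over duplicate plates. It expresses relative viability: treated-well nuclei count divided by vehicle-well nuclei count. Lung cancer cell lines in 1536-well plates were dosed by pin tool a day after seeding, alone with one drug or with a fixed anchor-drug dose plus five library-drug doses (not always all listed) in √10 steps, and nuclei were counted after 5 days.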

Serdemetan + OSI-027 = compound: c1ccc2c(CCNc3ccc(Nc4ccncc4)cc3)c[nH]c2c1 [Serdemetan] + COc1cccc2cc(-c3nc([C@H]4CC[C@H](C(=O)O)CC4)n4ncnc(N)c34)[nH]c12 [OSI-027] (partner 0.5 µM)
How it was run: as §1

Selisistat + Crizotinib = compound: C1CC(C2=C(C1)C3=C(N2)C=CC(=C3)Cl)C(=O)N [Selisistat] + C[C@@H](Oc1cc(-c2cnn(C3CCNCC3)c2)cnc1N)c1c(Cl)ccc(F)c1Cl [Crizotinib] (partner 1 µM)
How it was run: as §1

Selisistat + OSI-027 = compound: C1CC(C2=C(C1)C3=C(N2)C=CC(=C3)Cl)C(=O)N [Selisistat] + COc1cccc2cc(-c3nc([C@H]4CC[C@H](C(=O)O)CC4)n4ncnc(N)c34)[nH]c12 [OSI-027] (partner 0.5 µM)
How it was run: as §1

| Cell Line | relative viability (Selisistat + Decitabine; first compound 0.4 µM) | relative viability (Selisistat + Decitabine; first compound 1.265 µM) | relative viability (Selisistat + Decitabine; first compound 4 µM) | relative viability (Selisistat + Decitabine; first compound 12.65 µM) | relative viability (Selisistat + Decitabine; first compound 40 µM) | relative viability (Serdemetan + OSI-027; first compound 0.04 µM) | relative viability (Serdemetan + OSI-027; first compound 0.1265 µM) | relative viability (Serdemetan + OSI-027; first compound 0.4 µM) | relative viability (Serdemetan + OSI-027; first compound 1.265 µM) | relative viability (Serdemetan + OSI-027; first compound 4 µM) | relative viability (Selisistat + Crizotinib; first compound 0.4 µM) | relative viability (Selisistat + Crizotinib; first compound 1.265 µM) | relative viability (Selisistat + Crizotinib; first compound 4 µM) | relative viability (Selisistat + Crizotinib; first compound 12.65 µM) | relative viability (Selisistat + Crizotinib; first compound 40 µM) | relative viability (Selisistat + OSI-027; first compound 0.4 µM) | relative viability (Selisistat + OSI-027; first compound 1.265 µM) | relative viability (Selisistat + OSI-027; first compound 12.65 µM) | relative viability (Selisistat + OSI-027; first compound 40 µM) | relative viability (Selisistat + OSI-027; first compound 4 µM) |
| --- | --- | --- | --- | --- | --- | --- | --- | --- | --- | --- | --- | --- | --- | --- | --- | --- | --- | --- | --- | --- |
| COR-L 105 | 0.664 | 0.731 | 0.587 | 0.635 | 0.598 | 0.749 | 0.649 | 0.452 | 0.722 | 0.71 | 0.716 | 0.786 | 0.748 | 0.745 | 0.741 | 0.755 | 0.624 | 0.712 | 0.584 |  |
| RERF-LC-KJ | 0.806 | 0.601 | 0.593 | 0.61 | 0.614 | 0.589 | 0.711 | 0.442 | 0.498 | 0.401 | 0.826 | 0.879 | 0.835 | 0.771 | 0.716 | 0.742 | 0.525 | 0.532 | 0.533 | 0.51 |
| LXF-289 | 0.425 | 0.379 | 0.337 | 0.355 | 0.431 | 0.802 | 0.847 | 0.811 | 0.691 | 0.729 | 0.853 | 0.803 | 0.786 | 0.709 | 0.805 | 0.797 | 0.806 | 0.788 | 0.838 | 0.667 |
| PC-14 | 0.201 | 0.217 | 0.221 | 0.237 | 0.243 | 0.843 | 0.767 | 0.139 | 0.759 | 0.514 | 0.834 | 0.877 | 0.991 | 0.919 | 0.936 | 0.973 | 0.783 | 0.819 | 0.931 | 0.755 |
| NCI-H650 | 0.407 | 0.293 | 0.286 | 0.324 | 0.33 | 0.471 | 0.502 | 0.578 | 0.456 | 0.584 | 0.707 |  | 0.786 | 0.596 | 0.664 | 0.524 | 0.523 | 0.496 | 0.555 | 0.715 |
| NCI-H1666 | 0.825 | 0.699 | 0.692 | 0.687 | 0.778 | 0.898 | 0.887 | 0.847 | 0.667 | 0.771 | 1.12 | 0.871 | 0.788 | 0.835 | 0.618 | 0.794 | 0.744 | 0.673 | 0.711 | 0.841 |
| NCI-H2085 | 0.595 | 0.551 | 0.577 | 0.625 | 0.588 | 0.701 | 0.702 | 0.593 | 0.61 | 0.764 | 0.893 | 0.702 | 0.886 | 0.864 | 0.951 | 0.822 | 0.733 | 0.79 | 0.921 | 0.397 |
| NCI-H1734 | 0.562 | 0.436 | 0.45 | 0.556 | 0.455 | 0.586 | 0.523 | 0.554 | 0.138 | 0.196 | 0.696 | 0.606 | 0.714 | 0.761 | 0.648 | 0.616 | 0.636 | 0.545 | 0.685 | 0.491 |
| NCI-H2126 | 0.618 | 0.574 | 0.579 | 0.599 | 0.606 | 0.7 | 0.757 | 0.611 | 0.574 | 0.625 | 1.1 | 0.976 | 0.992 | 1.01 | 1.12 | 0.781 | 0.639 | 0.62 | 0.768 | 0.609 |
| EMC-BAC-2 | 1.11 | 0.897 | 0.931 | 0.933 | 0.683 | 0.368 | 0.383 | 0.392 | 0.268 | 0.355 | 0.78 | 0.74 | 0.742 | 0.582 | 0.755 | 0.391 | 0.358 | 0.362 | 0.342 | 0.462 |
| NCI-H1993 | 0.647 | 0.597 |  | 0.655 | 0.546 | 0.552 | 0.614 | 0.665 | 0.521 | 0.533 | 0.803 | 0.92 |  | 0.987 | 0.854 | 0.506 | 0.584 | 0.554 | 0.542 | 0.618 |
| NCI-H520 | 0.586 | 0.512 | 0.536 | 0.592 | 0.493 | 0.283 | 0.273 | 0.297 |  | 0.293 | 0.743 | 0.714 | 0.873 | 0.742 | 0.796 | 0.311 | 0.216 | 0.248 | 0.206 | 0.257 |
| NCI-H647 | 0.517 | 0.405 | 0.218 | 0.359 | 0.487 | 0.609 | 0.634 | 0.751 | 0.585 | 0.648 | 1.16 | 1 |  | 1.01 | 0.948 | 0.746 | 0.58 | 0.713 | 0.829 | 0.614 |
| NCI-H1792 | 0.625 | 0.497 |  | 0.516 | 0.537 | 0.752 | 0.718 | 0.677 | 0.42 | 0.426 | 1.01 | 1.02 |  | 0.907 | 0.965 | 0.745 | 0.68 | 0.644 | 0.689 |  |
| SK-LU-1 | 0.716 | 0.675 | 0.676 | 0.604 | 0.679 | 0.424 | 0.405 | 0.405 |  | 0.246 | 1.02 | 0.987 | 1.1 | 1.01 | 1.09 | 0.431 | 0.366 | 0.359 | 0.416 | 0.334 |
| ChaGo-K-1 | 0.486 | 0.511 | 0.482 | 0.491 | 0.502 | 0.546 | 0.611 | 0.539 | 0.33 | 0.367 | 1.15 | 1.04 |  | 1.08 | 1.09 | 0.588 | 0.461 | 0.535 | 0.617 | 0.492 |
